{"source": "patent EP3454861B1", "about": "“BENZOXAZINE OR QUINAZOLINE DERIVATIVES FOR USE IN THE TREATMENT OF ALZHEIMER'S DISEASE” (Biocodex, priority 2016, dated 2017)", "key": {"protéine Tau": {"test_system": "protéine Tau", "assay": "Tau hyperphosphorylation in cortical neurons after Aβ1-42", "assay_type": "cell-based, rats", "settings": "Rattus norvegicus, Cortical neurone, Aβ1-42 2,5 µM, 16 h (Aβ1-42 alone 183%), read-out: hyperphosphorylation de Tau", "description": "Des neurones corticaux de rats sont mis en culture comme dans la méthode décrite par Singer (1999) J. Neurosci. 19:2455-2463. Des rats femelles enceintes de 15 jours sont tuées par dislocation des cervicales (Rats Wistar, Janvier) et le fœtus est retiré de l'utérus. Les cortex sont prélevés et placés dans un milieu glacé de Leibovitz (L15, Panbiotech, Réf : P04-27055, lot : 9310614) contenant 2% de pénicilline (10 000 U/ml) et de streptomycine (10 mg/ml) (PS, Panbiotec, Réf : P06-07100, lot : 48101114) et 1% de sérum-albumine bovine (BSA, Panbiotech, Réf : P06-1391100, lot : H140603). Les cortex sont dissociés par trypsination (0,05% Panbiotech, Réf : P10-023100, lot : 5890314) pendant 20 minutes à 37°C. La réaction est stoppée par addition d'un milieu Eagle modifié de Dulbecco (DMEM, Panbiotech, réf P04-03600, lot : 9670913) contenant de la DNase I grade Il (0,1 mg/ml Panbiotech, Réf : P60-37780100, lot : H140508) et 10 % de sérum de veau fœtal (FCS, Invitrogen, Réf : 10270 à 098, lot : 41Q4120K). Les cellules sont dissociées mécaniquement par 3 passages à travers une pipette de 10 ml. Les cellules sont ensuite centrifugées à 515 g pendant 10 minutes à 4°C. Le surnageant est éliminé et les cellules sont remises en suspension dans un milieu de culture Neurobasal (Nb, Invitrogen, Réf : 21103, lot : 1608692) supplémenté avec 2% de B27 (Invitrogen, Réf : 17504, lot : 1589889), 2 mM de L-glutamine (Panbiotech, Réf : P04-80100, lot : 6620314), 2% de la solution PS et 10 ng/ml de facteur neurotrophique dérivé du cerveau (BDNF, PanBiotech, Réf : CB-1115002, lot : 4810114). Les cellules sont ensemencées à une densité de 30 000 cellules/puits dans des plaques de 96 puits pré-enduites de poly-L-lysine (10 ng/ml, Greiner Réf : 655930, lot : E14021HD) et cultivées à 37 °C dans une atmosphère humidifiée avec 95% d'air et 5% de CO2 pour l'évaluation de la survie des neurones (analyse de MAP2 par immuno-coloration) (6 puits/condition, 1 culture).\nLa préparation du peptide amyloïde β1-42 (Aβ1-42) est réalisée en suivant la procédure par Callizot et al. (2013) Neurosci. Res. 91:706-16. […]"}, "Bax": {"test_system": "Bax", "assay": "ELISA of Bax in mouse hippocampus after Aβ25-35", "assay_type": "in vivo, souris", "description": "Le 1^er jour : une version « mélangée » (scrambled) du peptide amyloïde β25-35 (Sc.Aβ, témoin négatif) ou le peptide amyloïde β25-35 (Aβ25-35) est injecté par voie intra-cérébroventriculaire (ICV) (le peptide Aβ25-35 provoque l'intoxication cellulaire). Entre le 1^er jour et le 10^ème jour, les traitements sont administrés une fois par jour par voie intrapéritonéale (IP).\nA la fin de la session de rétention d'évitement passif, le 10^ème jour, les animaux sont sacrifiés par décapitation. L'hippocampe et le cortex frontal sont disséqués et congelés dans l'azote liquide. L'hippocampe est utilisé pour mesurer le taux de peroxydation lipidique à l'aide d'une méthode colorimétrique et pour évaluer les taux de 4 marqueurs biochimiques par des tests ELISA. Le cortex est conservé à -80°C en attente d'analyses supplémentaires. Les plasmas sont également conservés en attente d'analyses supplémentaires. Les échantillons biologiques sont jetés après 3 mois.\nPour tous les dosages, les […] sont homogénéisés, après décongélation, dans un tampon Tris (Tris 50 mM, 150 mM NaCl, pH 7,5) et traités par ultrasons pendant 20 secondes. […] Pour chaque dosage, l'absorbance est lue à 450 nm et la concentration est calculée en utilisant la courbe standard. Les résultats sont exprimés en pg ou ng de marqueur par mg de tissu et en pourcentage de solution Sc.Aβ + véhicule. 6 échantillons par groupe (n = 36 kits ELISA) sont dosés en double."}}, "data": [{"smiles": "CCNC1=Nc2ccc(Cl)cc2C(C)(c2ccccc2)O1", "note": "(stereo not drawn) [Etifoxine, chlorhydratede 6-chloro-2-éthylamino-4-méthyl-4-phényl-4H-[3,1]benzoxazine]", "values": [{"measurement": "activity at 1 µM", "setting": "protéine Tau; étifoxine 1 µM", "result": 114, "unit": "%"}, {"measurement": "activity at 3 µM", "setting": "protéine Tau; étifoxine 3 µM", "result": 104, "unit": "%"}, {"measurement": "activity at 10 µM", "setting": "protéine Tau; étifoxine 10 µM", "result": 97.4, "unit": "%"}, {"measurement": "Taux de protéine Bax", "setting": "Bax; Aβ25-35/Etifoxine 12.5 mg/kg IP", "result": "180,1 ± 7,4 % de Sc.Aβ/V"}, {"measurement": "Taux de protéine Bax", "setting": "Bax; Aβ25-35/Etifoxine 25 mg/kg IP", "result": "132,6± 7,5 % de Sc.Aβ/V"}, {"measurement": "Taux de protéine Bax", "setting": "Bax; Aβ25-35/Etifoxine 50 mg/kg IP", "result": "99,9 ± 4,2 % de Sc.Aβ/V"}]}]}
